Assay results published in patent publication US7504400B2, “MTP inhibiting aryl piperydines or piperazines substituted with 5-membered heterocycles” (Janssen Pharmaceutica N.V., priority 2004, dated 2009).

Test system: Secretion of ApoB
Assay: Quantification of the secretion of ApoB in HepG2 cells
Assay type: cell-based
Conditions: Homo sapiens, HepG2, 24 h, 24 hours of incubation with test compound, immunoprecipitation of apoB from medium, read-out: pIC50 value (=-log IC50 value), secretion of ApoB (converted)
Procedure, shortened: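 At 70% confluency, HepG2 cells in MEM with 10% FCS received compound or DMSO carrier (0.4% final) for 24 h. Secreted apoB in cleared medium immunoprecipitated with sheep anti-apoB then rabbit anti-sheep antibody (24 h each, 8° C); pellet radioactivity counted by liquid scintillation; IC50 expressed as pIC50.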

Row | Structure (SMILES) | IC50 [µM]
1 | CC(C)n1ncn(-c2ccc(N3CCN(C(C(N)=O)c4ccccc4)CC3)cc2)c1=O (stereo not drawn) [Compound 145] | 0.316 to 3.16
2 | COC(=O)C(c1ccccc1)N1CCN(c2ccc(-n3cnn(C(C)C)c3=O)cn2)CC1 (stereo not drawn) [Compound 146] | 0.316 to 3.16
3 | CC(C)n1ncn(-c2ccc(N3CCN(CCC(C(=O)N(C)C)(c4ccccc4)c4ccccc4)CC3)cc2)c1=O [Compound 147] | 0.316 to 3.16
4 | CCCNC(=O)C(c1ccccc1)C1CCN(c2ccc(-n3cnn(CC)c3=O)cc2)CC1 (stereo not drawn) [Compound 148] | 0.316 to 3.16
5 | CCCNC(=O)C(c1ccccc1)C1CCN(c2ccc(-n3cnn(CCC)c3=O)cc2)CC1 (stereo not drawn) [Compound 149] | 0.316 to 3.16
6 | CCCCn1ncn(-c2ccc(N3CCC(C(C(=O)NCCC)c4ccccc4)CC3)cc2)c1=O (stereo not drawn) [Compound 150] | 0.0316 to 0.316
7 | CCCCCn1ncn(-c2ccc(N3CCC(C(C(=O)NCCC)c4ccccc4)CC3)cc2)c1=O (stereo not drawn) [Compound 151] | 0.0316 to 0.316
8 | C=CCn1ncn(-c2ccc(N3CCC(C(C(=O)NCCC)c4ccccc4)CC3)cc2)c1=O (stereo not drawn) [Compound 152] | 0.316 to 3.16
9 | CCCNC(=O)C(c1ccccc1)C1CCN(c2ccc(-n3cnn(CC(C)C)c3=O)cc2)CC1 (stereo not drawn) [Compound 153] | 0.0316 to 0.316
10 | CCCNC(=O)C(c1ccccc1)C1CCN(c2ccc(-n3cnn(CC4CC4)c3=O)cc2)CC1 (stereo not drawn) [Compound 154] | 0.0316 to 0.316
11 | CCCNC(=O)C(c1ccccc1)C1CCN(c2ccc(-n3cnn(Cc4ccccc4)c3=O)cc2)CC1 (stereo not drawn) [Compound 155] | 0.0316 to 0.316
12 | CCCCn1ncn(-c2ccc(N3CCC(C(C(=O)NCc4ccccc4)c4ccccc4)CC3)cc2)c1=O (stereo not drawn) [Compound 156] | 0.0316 to 0.316
13 | CCCCCn1ncn(-c2ccc(N3CCC(C(C(=O)NCc4ccccc4)c4ccccc4)CC3)cc2)c1=O (stereo not drawn) [Compound 157] | 0.0316 to 0.316
14 | O=C(NCc1ccccc1)C(c1ccccc1)C1CCN(c2ccc(-n3cnn(Cc4ccccc4)c3=O)cc2)CC1 (stereo not drawn) [Compound 158] | 0.0316 to 0.316
15 | COC(=O)C(c1ccccc1)N1CCN(c2ccc(-n3nc(C)n(C(C)C)c3=O)cc2)CC1 (stereo not drawn) [Compound 159] | 0.316 to 3.16
16 | CC(C)n1ncn(-c2ccc(N3CCN(CCCC(C(=O)Nc4ccccc4)c4ccccc4)CC3)cc2)c1=O (stereo not drawn) [Compound 160] | 0.316 to 3.16
17 | CCNC(=O)C(CCN1CCN(c2ccc(-n3cnn(C(C)C)c3=O)cc2)CC1)c1ccccc1 (stereo not drawn) [Compound 161] | 0.316 to 3.16
18 | CC(C)n1ncn(-c2ccc(N3CCN(CCC(C(=O)NCc4ccccc4)c4ccccc4)CC3)cc2)c1=O (stereo not drawn) [Compound 162] | 0.316 to 3.16
19 | CCNC(=O)C(c1ccccc1)N1CCN(c2ccc(-n3cnn(C(C)C)c3=O)cc2)CC1 (stereo not drawn) [Compound 163] | 0.0316 to 0.316
20 | CCCNC(=O)C(c1ccccc1)N1CCN(c2ccc(-n3cnn(C(C)C)c3=O)cc2)CC1 (stereo not drawn) [Compound 164] | 0.0316 to 0.316
21 | CC(C)n1ncn(-c2ccc(N3CCN(C(C(=O)NCc4ccccc4)c4ccccc4)CC3)cc2)c1=O (stereo not drawn) [Compound 165] | 0.316 to 3.16
22 | CC(C)n1ncn(-c2ccc(N3CCN(C(C(=O)NCC(F)(F)F)c4ccccc4)CC3)cc2)c1=O (stereo not drawn) [Compound 166] | 0.316 to 3.16
23 | Cn1ncn(-c2ccc(N3CCC(C(C(=O)NCc4ccccc4)c4ccccc4)CC3)cc2)c1=O (stereo not drawn) [Compound 167] | 0.316 to 3.16

Row | Structure (SMILES) | IC50 [µM]
24 | CC(C)n1ncn(-c2ccc(N3CCC(C(C(=O)NCc4ccccc4)c4ccccc4)CC3)cc2)c1=O (stereo not drawn) [Compound 168] | 0.0316 to 0.316
25 | COC(=O)C(CCN1CCN(c2ccc(-n3cnn(C(C)C)c3=O)cc2)CC1)c1ccccc1 (stereo not drawn) [Compound 169] | 0.316 to 3.16
26 | CC(C)n1ncn(-c2ccc(N3CCN(C(C(=O)NCC(F)(F)F)c4ccccc4)CC3)nc2)c1=O (stereo not drawn) [Compound 170] | 0.316 to 3.16
27 | COC(=O)C(c1ccccc1)N1CCC(c2ccc(-n3cnn(C(C)C)c3=O)cc2)CC1 (stereo not drawn) [Compound 171] | 0.0316 to 0.316
28 | COC(=O)C(c1ccccc1)N1CCN(c2ccc(-n3cnn(C(C)C)c3=O)cc2)CC1 (stereo not drawn) [Compound 172] | 0.316 to 3.16
29 | COC(=O)C(c1ccccc1)(c1ccccc1)N1CCN(c2ccc(-n3cnn(C(C)C)c3=O)cc2)CC1 [Compound 173] | 0.0316 to 0.316
30 | CCC(C)n1ncn(-c2ccc(N3CCN(C(C(=O)OC)c4ccccc4)CC3)cc2)c1=O (stereo not drawn) [Compound 174] | 0.0316 to 0.316
31 | CCNC(=O)C(c1ccccc1)N1CCN(c2ccc(-n3cnn(C(C)CC)c3=O)cc2)CC1 (stereo not drawn) [Compound 175] | 0.0316 to 0.316
32 | CCCC(C(=O)Nc1ccc2c(c1)CCC2)N1CCN(c2ccc(-n3cnn(C(C)C)c3=O)cc2)CC1 (stereo not drawn) [Compound 177] | 0.0316 to 0.316
33 | CCC(C)n1ncn(-c2ccc(N3CCN(C(C(=O)NCC(F)(F)F)c4ccccc4)CC3)cc2)c1=O (stereo not drawn) [Compound 178] | 0.0316 to 0.316
34 | C=CCn1ncn(-c2ccc(N3CCC(C(C(=O)NCc4ccccc4)c4ccccc4)CC3)cc2)c1=O (stereo not drawn) [Compound 180] | 0.0316 to 0.316
35 | CC(C)Cn1ncn(-c2ccc(N3CCC(C(C(=O)NCc4ccccc4)c4ccccc4)CC3)cc2)c1=O (stereo not drawn) [Compound 181] | 0.0316 to 0.316
36 | O=C(NCc1ccccc1)C(c1ccccc1)C1CCN(c2ccc(-n3cnn(CC4CC4)c3=O)cc2)CC1 (stereo not drawn) [Compound 182] | 0.0316 to 0.316
37 | O=C(NCc1ccccc1)C(c1ccccc1)C1CCN(c2ccc(-n3cnn(C/C=C/c4ccccc4)c3=O)cc2)CC1 (stereo not drawn) [Compound 183] | 0.0316 to 0.316
38 | COc1ccc(NC(=O)C(c2ccccc2)N2CCN(c3ccc(-n4cnn(C(C)C)c4=O)cc3)CC2)c(OC)c1 (stereo not drawn) [Compound 184] | 0.0316 to 0.316
39 | COc1ccccc1NC(=O)C(c1ccccc1)N1CCN(c2ccc(-n3cnn(C(C)C)c3=O)cc2)CC1 (stereo not drawn) [Compound 185] | 0.316 to 3.16
40 | CC(C)n1ncn(-c2ccc(N3CCN(C(C(=O)Nc4ccc(F)cc4)c4ccccc4)CC3)cc2)c1=O (stereo not drawn) [Compound 186] | 0.0316 to 0.316
41 | CCOC(=O)C(c1ccccc1)N1CCN(c2ccc(-n3ccn(C(C)C)c3=O)cc2)CC1 (stereo not drawn) [Compound 189] | 0.316 to 3.16
42 | CC(C)n1cnn(-c2ccc(N3CCN(C(C(=O)Nc4ccc5c(c4)CCC5)c4ccccc4)CC3)cc2)c1=O (stereo not drawn) [Compound 191] | 0.0316 to 0.316
43 | COC(=O)c1cccc(NC(=O)C(c2ccccc2)N2CCN(c3ccc(-n4cnn(C(C)C)c4=O)cc3)CC2)c1 (stereo not drawn) [Compound 192] | 0.0316 to 0.316
44 | COC(=O)c1ccc(CNC(=O)C(c2ccccc2)N2CCN(c3ccc(-n4cnn(C(C)C)c4=O)cc3)CC2)cc1 (stereo not drawn) [Compound 196] | 0.316 to 3.16
45 | CC(C)n1ncn(-c2ccc(N3CCN(C(C(=O)Nc4ccc5c(c4)-c4ccccc4C5)c4ccccc4)CC3)cc2)c1=O (stereo not drawn) [Compound 197] | 0.0316 to 0.316
46 | CC(C)n1ncn(-c2ccc(N3CCN(C(C(=O)Nc4ccc5c(c4)nc(-c4ccccc4)n5C)c4ccccc4)CC3)cc2)c1=O (stereo not drawn) [Compound 199] | 0.316 to 3.16

Row | Structure (SMILES) | IC50 [µM]
47 | CC(C)n1ncn(-c2ccc(N3CCN(C(C(=O)Nc4ccc5c(c4)OCO5)c4ccccc4)CC3)cc2)c1=O (stereo not drawn) [Compound 200] | 0.0316 to 0.316
48 | CC(C)n1ncn(-c2ccc(N3CCN(C(C(=O)Nc4ccc5c(c4)NCC5)c4ccccc4)CC3)cc2)c1=O (stereo not drawn) [Compound 201] | 0.0316 to 0.316
49 | CC(=O)N1CCc2ccc(NC(=O)C(c3ccccc3)N3CCN(c4ccc(-n5cnn(C(C)C)c5=O)cc4)CC3)cc21 (stereo not drawn) [Compound 202] | 0.0316 to 0.316
50 | CC(C)N1CCN(c2ccc(N3CCN(C(C(=O)Nc4ccc5c(c4)CCC5)c4ccccc4)CC3)cc2)C1=O (stereo not drawn) [Compound 203] | < 0.0316
51 | COC(=O)C(c1ccccc1)N1CCN(c2ccc(-n3cnn(C(C)c4ccccc4)c3=O)cc2)CC1 (stereo not drawn) [Compound 204] | 0.0316 to 0.316
52 | CC(C)n1ccn(-c2ccc(N3CCN(C(C(=O)Nc4ccc5c(c4)CCC5)c4ccccc4)CC3)cc2)c1=O (stereo not drawn) [Compound 205] | < 0.0316
53 | CCOC(=O)c1ccccc1NC(=O)C(c1ccccc1)N1CCN(c2ccc(-n3cnn(C(C)C)c3=O)cc2)CC1 (stereo not drawn) [Compound 206] | 0.0316 to 0.316
54 | CCC(C)n1nc(C)n(-c2ccc(N3CCC(C(C(=O)Nc4ccc5c(c4)CCC5)c4ccccc4)CC3)cc2)c1=O (stereo not drawn) [Compound 207] | < 0.0316
55 | CC(c1ccccc1)n1ncn(-c2ccc(N3CCN(C(C(=O)Nc4ccc5c(c4)CCC5)c4ccccc4)CC3)cc2)c1=O (stereo not drawn) [Compound 208] | 0.316 to 3.16
56 | O=C(Nc1ccc2c(c1)CCC2)C(c1ccccc1)C1CCN(c2ccc(-n3nc4ccccn4c3=O)cc2)CC1 (stereo not drawn) [Compound 211] | < 0.0316
57 | O=C(Nc1ccc2c(c1)CCC2)C(c1ccccc1)C1CCN(c2ccc(-n3ncn(Cc4ccccc4)c3=O)cc2)CC1 (stereo not drawn) [Compound 212] | < 0.0316
58 | CC(C)n1ncn(-c2ccc(N3CCC(CC(=O)Nc4ccc5c(c4)CCC5)CC3)cc2)c1=O [Compound 213] | 0.316 to 3.16
59 | Cc1cc(N2CCN(C(C(=O)Nc3ccc4c(c3)CCC4)c3ccccc3)CC2)ccc1-n1ccn(C(C)C)c1=O (stereo not drawn) [Compound 214] | < 0.0316
60 | CC(C)n1ncn(-c2ccc(N3CCN(C(C(=O)Nc4ccc5c(c4)CCC5)c4ccccc4)CC3)c(Cl)c2)c1=O (stereo not drawn) [Compound 215] | < 0.0316
61 | CC(C)n1ncn(-c2ccc(N3CCN(C(C(=O)Nc4ccc5c(c4)CCC5)c4ccccc4)CC3)c(F)c2)c1=O (stereo not drawn) [Compound 216] | 0.0316 to 0.316
62 | CCOC(=O)C(c1ccccc1)N1CCN(c2ccc(-n3cnn(C(C)C)c3=O)c(C)c2)CC1 (stereo not drawn) [Compound 217] | 0.0316 to 0.316
63 | Cc1cc(N2CCN(C(C(=O)Nc3ccc4c(c3)CCC4)c3ccccc3)CC2)ccc1-n1cnn(C(C)C)c1=O (stereo not drawn) [Compound 218] | < 0.0316
64 | CCOC(=O)C(c1ccccc1)N1CCN(c2ccc(N3CCN(C(C)C)C3=O)c(C)c2)CC1 (stereo not drawn) [Compound 219] | 0.316 to 3.16
65 | Cc1cc(N2CCN(C(C(=O)Nc3ccc4c(c3)CCC4)c3ccccc3)CC2)ccc1N1CCN(C(C)C)C1=O (stereo not drawn) [Compound 220] | < 0.0316
66 | CCOC(=O)C(c1ccccc1)N1CCC(c2ccc(-n3ccn(C(C)c4ccccc4)c3=O)cc2)CC1 (stereo not drawn) [Compound 221] | 0.0316 to 0.316
67 | CCOC(=O)C(c1ccccc1)C1CCN(c2ccc(-n3ccn(C(C)c4ccccc4)c3=O)cc2)CC1 (stereo not drawn) [Compound 222] | 0.0316 to 0.316
68 | CCOC(=O)C(c1ccccc1)N1CCC(c2ccc(-n3ccn([C@@H](C)c4ccc(F)cc4)c3=O)cc2)CC1 (stereo partly drawn) [Compound 223] | 0.316 to 3.16
69 | CCOC(=O)C(c1ccccc1)N1CCC(c2ccc(-n3ccn([C@H](C)c4ccc(F)cc4)c3=O)cc2)CC1 (stereo partly drawn) [Compound 224] | 0.0316 to 0.316
